# Measurements: patent publication US10907191B2, “Method for measuring activity of oxidoreductase” (NATIONAL AGRICULTURE AND FOOD RESEARCH ORGANIZATION, priority 2016, dated 2021)
# pIC50: −log10 of the molar value.
# Biological target: T1, HAO derived from Nitrosomonas europaea (Nitrosomonas europaea, UniProt Q50925)
# T1 construct: HAO was purified from ammonia oxidizing bacteria, and stored in a solution state or after drying; made in house; host or cells: Nitrosomonas europaea cells (native enzyme, not recombinant), purified by column chromatography
# T1 sequence (Q50925 25-570): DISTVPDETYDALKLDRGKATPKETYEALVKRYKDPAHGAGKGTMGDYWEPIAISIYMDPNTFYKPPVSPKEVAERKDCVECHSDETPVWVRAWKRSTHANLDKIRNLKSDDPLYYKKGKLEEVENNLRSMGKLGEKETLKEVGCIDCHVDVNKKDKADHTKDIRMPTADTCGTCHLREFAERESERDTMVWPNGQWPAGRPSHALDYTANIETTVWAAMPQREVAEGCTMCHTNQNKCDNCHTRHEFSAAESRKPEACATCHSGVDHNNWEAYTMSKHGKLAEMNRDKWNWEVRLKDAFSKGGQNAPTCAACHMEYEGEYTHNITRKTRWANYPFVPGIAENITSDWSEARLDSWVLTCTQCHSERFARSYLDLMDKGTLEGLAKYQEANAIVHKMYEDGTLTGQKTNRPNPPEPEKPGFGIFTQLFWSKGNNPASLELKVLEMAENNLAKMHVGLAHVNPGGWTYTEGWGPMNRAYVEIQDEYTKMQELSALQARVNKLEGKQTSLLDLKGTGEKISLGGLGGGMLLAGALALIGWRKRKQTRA
# Test: Determination of 50% inhibitory concentration against HAO by HAO fluorescence measurement (resazurin method)
# Assay type: biochemical
# Details: n=4, nonlinear fitting
# Protocol: The HAO fluorescence activity measurement was carried out to the compound library for screening by the resazurin method, and the inhibitory effect of these compounds was verified. The 40 kinds of compounds were dissolved in DMSO for molecular biology (available from Wako Pure Chemical Industries, Ltd.) or ultrapure water at a concentration of 100 mM, and further 2-fold dilution series was prepared with 16 series (100 mM, 50 mM, 25 mM, 12.5 mM, 6.25 mM, 3.13 mM, 1.56 mM, 0.78 mM, 0.39 mM, 0.19 mM, 97 μM, 48.8 μM, 24.4 μM, 12.2 μM, 6.1 μM and 3.1 μM) (final concentration becomes 1/200 concentration thereof). […] The plate was inserted into a fluorescence plate reader attached with a reagent injector (infinite M1000 PRO, manufactured by Tecan Co.), and 25 μL of 4 mM hydroxylamine stock solution for 4-fold dilution was added per well, so that an amount of the hydroxylamine to that of the resazurin was made 10-fold amount (molar ratio) in the reaction system. After 2 hours of incubation, fluorescence measurement (excitation wavelength 562 nm: wavelength width 20 nm, measurement wavelength 592 nm: wavelength width 20 nm) was carried out. Candidate compound A was selected as a inhibitor which decreased the fluorescence intensity to 10% or less compared with without-inhibitor condition. […]
smiles,measurement,value
NNc1ccccc1 [phenylhydrazine],pIC50,6.56
